Results: PubChem BioAssay AID330 (DTP/NCI, 2004)
“And” between values parts separate entries of the source, which are not always exact repeats. Identical values can stand only once. Inconclusive results and toxic doses are left out. How the source made its calls: active means survival T/C of 150% or more; inactive means T/C below 125% in these data.

Tested on: P388 leukemia ip, CD2F1 mice, survival T/C
Assay: NCI In Vivo Anticancer Drug Screen. Data for tumor model P388 Leukemia (intraperitoneal) in CD2F1 (CDF1) mice
Conditions: endpoint: median survival time, higher = longer survival
Summary of the method: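 Mice carrying the transplanted tumor received test compound or vehicle. Survival was recorded in each group, and the value is the treated-group measurement divided by that of the vehicle-treated control group.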

[1] = dose: 25.0 mg/kg/injection, schedule: Q01DX009 (ip), vehicle: Klucel (hydroxypropylcellulose) (HPC)
[2] = dose: 50.0 mg/kg/injection, schedule: Q01DX009 (ip), vehicle: Klucel (hydroxypropylcellulose) (HPC)
[3] = dose: 100.0 mg/kg/injection, schedule: Q01DX009 (ip), vehicle: Klucel (hydroxypropylcellulose) (HPC)
[4] = dose: 100.0 mg/kg/injection, schedule: Q01DX001 (ip), vehicle: saline with Tween-80
[5] = dose: 200.0 mg/kg/injection, schedule: Q01DX001 (ip), vehicle: saline with Tween-80
[6] = dose: 200.0 mg/kg/injection, schedule: Q01DX009 (ip), vehicle: Klucel (hydroxypropylcellulose) (HPC)
[7] = dose: 50.0 mg/kg/injection, schedule: Q01DX009 (ip), vehicle: saline
[8] = dose: 100.0 mg/kg/injection, schedule: Q01DX009 (ip), vehicle: saline
[9] = dose: 200.0 mg/kg/injection, schedule: Q01DX009 (ip), vehicle: saline

Measured: T/C

CCOC(=O)/C(C#N)=C/Nc1cc(C(=O)OCC)cc2c(OC)c(OC)ccc12
inactive: dose: 12.5 mg/kg/injection, schedule: Q01DX009 (ip), vehicle: distilled water + Tween-80 97 % of control | dose: 25.0 mg/kg/injection, schedule: Q01DX009 (ip), vehicle: distilled water + Tween-80 93 % of control | dose: 50.0 mg/kg/injection, schedule: Q01DX009 (ip), vehicle: distilled water + Tween-80 106 % of control | dose: 100.0 mg/kg/injection, schedule: Q01DX009 (ip), vehicle: distilled water + Tween-80 106 % of control | dose: 200.0 mg/kg/injection, schedule: Q01DX009 (ip), vehicle: distilled water + Tween-80 110 % of control

O=[N+]([O-])c1ccc2c3c(ccc([N+](=O)[O-])c13)CC2
inactive: [1] 93 % of control | [2] 93 % of control | [3] 91 % of control

Nc1ccc(S(=O)c2ccc(N)cc2)cc1
inactive: dose: 6.25 mg/kg/injection, schedule: Q04DX003 (ip), vehicle: saline 118 % of control | dose: 12.5 mg/kg/injection, schedule: Q04DX003 (ip), vehicle: saline 107 % of control | dose: 25.0 mg/kg/injection, schedule: Q04DX003 (ip), vehicle: saline 104 % of control | dose: 50.0 mg/kg/injection, schedule: Q04DX003 (ip), vehicle: saline 109 % of control

CCC(C)NCC/C(=C\[Si](C)(C)C)c1ccccc1 (configuration not stated)
inactive: [4] 100 % of control | [5] 106 % of control

CC(C)c1ccccc1[S+]1OC(C)(C)c2ccccc21 (configuration not stated)
inactive: [2] 107 % of control | [3] 103 % of control | [6] 95 % of control

Cc1cc(N/N=C/c2ccc(Cl)cc2)c2cc3c(cc2n1)OCO3
inactive: dose: 12.5 mg/kg/injection, schedule: Q01DX005 (ip), vehicle: Klucel (hydroxypropylcellulose) (HPC) 98 % of control | dose: 25.0 mg/kg/injection, schedule: Q01DX005 (ip), vehicle: Klucel (hydroxypropylcellulose) (HPC) 103 % of control | dose: 50.0 mg/kg/injection, schedule: Q01DX005 (ip), vehicle: Klucel (hydroxypropylcellulose) (HPC) 102 % of control and 95 % of control

CC(C)COC1CN=NN1/C=C1\CCOC1=O (configuration not stated)
inactive: dose: 60.0 mg/kg/injection, schedule: Q01DX005 (ip), vehicle: saline with Tween-80 102 % of control | dose: 120.0 mg/kg/injection, schedule: Q01DX005 (ip), vehicle: saline with Tween-80 107 % of control | dose: 240.0 mg/kg/injection, schedule: Q01DX005 (ip), vehicle: saline with Tween-80 100 % of control

COc1ccc2c(c1)nc(-c1ccccn1)n2CCc1ccccn1
inactive: dose: 50.0 mg/kg/injection, schedule: Q04DX002 (ip), vehicle: Klucel (hydroxypropylcellulose) (HPC) 113 % of control | dose: 100.0 mg/kg/injection, schedule: Q04DX002 (ip), vehicle: Klucel (hydroxypropylcellulose) (HPC) 101 % of control | dose: 200.0 mg/kg/injection, schedule: Q04DX002 (ip), vehicle: Klucel (hydroxypropylcellulose) (HPC) 104 % of control | dose: 400.0 mg/kg/injection, schedule: Q04DX002 (ip), vehicle: Klucel (hydroxypropylcellulose) (HPC) 101 % of control

CC(=O)OC1C(OC(=O)c2ccccc2)C=CC2OC21COC(=O)c1ccccc1 (configuration not stated)
inactive: dose: 25.0 mg/kg/injection, schedule: Q01DX005 (ip), vehicle: saline + alcohol 97 % of control | dose: 50.0 mg/kg/injection, schedule: Q01DX005 (ip), vehicle: saline + alcohol 105 % of control | dose: 100.0 mg/kg/injection, schedule: Q01DX005 (ip), vehicle: saline + alcohol 98 % of control | dose: 200.0 mg/kg/injection, schedule: Q01DX005 (ip), vehicle: saline + alcohol 91 % of control

CN=C(C)c1ccc(N(C)C)cc1
inactive: dose: 12.5 mg/kg/injection, schedule: Q04DX003 (ip), vehicle: saline with Tween-80 100 % of control | dose: 25.0 mg/kg/injection, schedule: Q04DX003 (ip), vehicle: saline with Tween-80 100 % of control and 105 % of control | dose: 50.0 mg/kg/injection, schedule: Q04DX003 (ip), vehicle: saline with Tween-80 110 % of control and 97 % of control | dose: 100.0 mg/kg/injection, schedule: Q04DX003 (ip), vehicle: saline with Tween-80 105 % of control and 115 % of control | dose: 200.0 mg/kg/injection, schedule: Q04DX003 (ip), vehicle: saline with Tween-80 100 % of control and 120 % of control

CCC(c1ccc(OC)cc1)C(NCC(=O)NNC(=S)Nc1ccccc1)c1ccc(OC)cc1 (configuration not stated)
inactive: [4] 92 % of control | [5] 101 % of control | dose: 400.0 mg/kg/injection, schedule: Q01DX001 (ip), vehicle: saline with Tween-80 108 % of control

COc1ccc(-c2csc(N)n2)cc1OC
inactive: dose: 100.0 mg/kg/injection, schedule: Q04DX003 (ip), vehicle: Klucel (hydroxypropylcellulose) (HPC) 98 % of control | dose: 200.0 mg/kg/injection, schedule: Q04DX003 (ip), vehicle: Klucel (hydroxypropylcellulose) (HPC) 101 % of control | dose: 400.0 mg/kg/injection, schedule: Q04DX003 (ip), vehicle: Klucel (hydroxypropylcellulose) (HPC) 102 % of control

CCC(=O)NC(Cc1ccsc1)C(=O)O (configuration not stated)
inactive: dose: 12.5 mg/kg/injection, schedule: Q01DX009 (ip), vehicle: saline 103 % of control | dose: 25.0 mg/kg/injection, schedule: Q01DX009 (ip), vehicle: saline 107 % of control | [7] 98 % of control | [8] 90 % of control | [9] 90 % of control

CC/C=c1/[nH]c(=O)/c(=C\c2ccc([N+](=O)[O-])cc2)[nH]c1=O
inactive: [1] 90 % of control | [2] 87 % of control and 91 % of control | [3] 86 % of control | [6] 94 % of control

CC(=O)Nc1ccc(C(=O)N/N=C/c2ccccc2O)cc1
inactive: dose: 6.25 mg/kg/injection, schedule: Q01DX009 (ip), vehicle: Klucel (hydroxypropylcellulose) (HPC) 90 % of control | dose: 12.5 mg/kg/injection, schedule: Q01DX009 (ip), vehicle: Klucel (hydroxypropylcellulose) (HPC) 93 % of control | [1] 88 % of control

C=CCn1c(=O)n(CC=C)c(=O)n(CCOC(=O)COc2ccc(Cl)cc2Cl)c1=O
inactive: [7] 108 % of control | [8] 112 % of control | [9] 94 % of control
